Assays:
RSK1 = target: T1, RSK1 (Homo sapiens, UniProt Q15418); assay: Western blot degradation of RSK1 (hPBMC); type: cell-based; settings: Table D8
T1 construct: evaluate the effects of the compounds of the present disclosure on the expression of target proteins in cells; endogenous in cells; host or cells: hPBMC
Procedure: (§1) Conventional Western blot assay was performed to evaluate the effects of the compounds of the present disclosure on the expression of target proteins in cells.
(§2) (1) Cell Seeding and Protein Harvesting: The selected cells were processed according to the cell seeding procedure and protein harvesting procedure in Table III-2. Table III-2 Cell Seeding and Protein Harvesting Procedures
(§3) (2) To the collected supernatant, 5X SDS sample loading buffer was added, followed by denaturation at 95°C for 5 minutes. The denatured samples were then separated by SDS-PAGE electrophoresis on a polyacrylamide gel. Proteins were transferred to a nitrocellulose membrane (0.45 µm NC membrane), blocked with blocking buffer at room temperature for 1 hour, and subjected to antibody incubation and development procedures according to the antibody manufacturer's instructions (Cell Signaling Technology).
(§4) Half-Maximal Degradation Concentration value (the drug concentration required for degrading proteins by 50%, abbreviated as DC50) reads method: comparing the grayscale values of Western blot bands from drug-treated samples with those from blank DMSO-treated controls, and identifying the drug concentration range at which the grayscale value is half that of the DMSO-treated control bands.
(§5) DC50 values can be calculated using ImageJ software to measure grayscale values of Western blot bands from drug-treated samples. The concentration-response curve is fitted to estimate the drug concentration corresponding to half the grayscale value.
(§6) Target protein remaining (%) refers to the percentage of target protein remaining in hPBMC cells after treatment with protein degrader compounds.
(§7) Calculation method for target protein remaining (%): Use ImageJ software to measure grayscale values of Western blot bands from drug (protein degrader)-treated samples. The grayscale value of drug-treated bands is divided by that of internal control protein bands, and the resulting quotient is normalized to obtain the relative percentage of remaining target protein after protein degrader treatment.
(§8) Target protein degradation rate (%) = 100% - target protein remaining (%).

RSK2 = target: T2, RSK2 (Homo sapiens, UniProt P51812); assay: Western blot degradation of RSK2 (hPBMC); type: cell-based; settings: Table D8
T2 construct: evaluate the effects of the compounds of the present disclosure on the expression of target proteins in cells; endogenous in cells; host or cells: hPBMC
Procedure: as §1, §2, §3, §4, §5, §6, §7, §8

T1 sequence (Q15418 whole entry): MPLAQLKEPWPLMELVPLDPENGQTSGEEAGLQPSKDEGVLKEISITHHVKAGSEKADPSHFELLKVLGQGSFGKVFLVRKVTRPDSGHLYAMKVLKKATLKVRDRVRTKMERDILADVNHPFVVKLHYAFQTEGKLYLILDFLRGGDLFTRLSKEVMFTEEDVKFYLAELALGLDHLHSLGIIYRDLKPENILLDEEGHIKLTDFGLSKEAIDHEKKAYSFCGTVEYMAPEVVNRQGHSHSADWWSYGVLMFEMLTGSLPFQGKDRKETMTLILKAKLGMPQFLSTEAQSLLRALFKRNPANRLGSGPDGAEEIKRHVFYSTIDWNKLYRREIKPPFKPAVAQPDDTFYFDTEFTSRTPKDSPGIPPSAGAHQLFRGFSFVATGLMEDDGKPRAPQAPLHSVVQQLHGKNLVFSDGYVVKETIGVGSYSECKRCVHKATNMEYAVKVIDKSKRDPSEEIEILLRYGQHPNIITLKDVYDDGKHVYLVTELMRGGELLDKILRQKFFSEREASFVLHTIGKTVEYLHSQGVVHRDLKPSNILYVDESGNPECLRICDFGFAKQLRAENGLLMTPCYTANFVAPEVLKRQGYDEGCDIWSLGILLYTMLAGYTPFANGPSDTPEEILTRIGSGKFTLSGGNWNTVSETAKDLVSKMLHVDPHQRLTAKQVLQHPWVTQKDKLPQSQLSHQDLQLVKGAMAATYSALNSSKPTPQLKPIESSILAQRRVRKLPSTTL
T2 sequence (P51812 whole entry): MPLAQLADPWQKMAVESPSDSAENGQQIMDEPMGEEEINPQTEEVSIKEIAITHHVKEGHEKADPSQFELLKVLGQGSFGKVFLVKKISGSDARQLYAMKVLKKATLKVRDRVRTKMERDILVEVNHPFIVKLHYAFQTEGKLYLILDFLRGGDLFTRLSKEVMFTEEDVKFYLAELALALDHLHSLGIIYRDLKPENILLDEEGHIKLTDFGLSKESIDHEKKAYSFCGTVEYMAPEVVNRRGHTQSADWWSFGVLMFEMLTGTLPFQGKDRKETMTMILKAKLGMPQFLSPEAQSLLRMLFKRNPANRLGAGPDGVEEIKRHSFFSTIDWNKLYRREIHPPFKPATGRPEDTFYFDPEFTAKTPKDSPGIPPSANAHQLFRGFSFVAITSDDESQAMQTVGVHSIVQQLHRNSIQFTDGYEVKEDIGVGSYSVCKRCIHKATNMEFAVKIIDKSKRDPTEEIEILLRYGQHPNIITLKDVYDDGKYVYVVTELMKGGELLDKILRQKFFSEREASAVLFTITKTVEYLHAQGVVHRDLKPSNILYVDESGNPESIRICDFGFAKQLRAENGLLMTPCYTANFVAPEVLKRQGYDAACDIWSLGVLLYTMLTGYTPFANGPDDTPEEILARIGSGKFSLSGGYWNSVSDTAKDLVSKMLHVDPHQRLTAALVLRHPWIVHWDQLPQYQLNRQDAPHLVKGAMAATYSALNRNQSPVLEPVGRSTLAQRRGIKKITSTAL

Row | Structure (SMILES) | Degradation of substrate protein RSK1 (substrate protein remaining %) (RSK1) | Degradation of substrate protein RSK2 (substrate protein remaining %) (RSK2)
1 | C[C@@H]1CNC(=O)c2cc3ccc(C(=O)Nc4cnn(Cc5ccc(N6CCN(Cc7cncc(C8CCC(=O)NC8=O)c7)CC6)cc5)c4)nc3n21 (stereo partly drawn) [GT-07934, (9R)-N-(1-(4-(4-((5-(2,6-dioxopiperidin-3-yl)pyridin-3-yl)methyl)piperazin-1-yl)benzyl)-1H-pyrazol-4-yl)-9-methyl-6-oxo-6,7,8,9-tetrahydropyrido[3',2':4,5]py rrolo[1,2-a]pyrazine-2-carboxamide] | A (A is defined as 0% ≤ substrate protein remaining % ≤ 80%) | B (B is defined as substrate protein remaining % > 80%)
2 | C[C@@H]1CNC(=O)c2cc3ccc(C(=O)Nc4cnn(Cc5ccc(N6CCN(Cc7cc(N8CCC(=O)NC8=O)cnc7F)CC6)cc5)c4)nc3n21 [GT-07935, (R)-N-(1-(4-(4-((5-(2,4-dioxotetrahydropyrimidin-1(2H)-yl)-2-fluoropyridin-3-yl)methyl)piperazin-1-yl)benzyl)-1H-pyrazol-4-yl)-9-methyl-6-oxo-6,7,8,9-tetrahydropyrido[3',2':4,5]py rrolo[1,2-a]pyrazine-2-carboxamide] | A (A is defined as 0% ≤ substrate protein remaining % ≤ 80%) | B (B is defined as substrate protein remaining % > 80%)
3 | C[C@@H]1CNC(=O)c2cc3ccc(C(=O)Nc4cnn(Cc5ccc(N6CCN(Cc7cnc(N8CCC(=O)NC8=O)cn7)CC6)cc5)c4)nc3n21 [GT-07936, (R)-N-(1-(4-(4-((5-(2,4-dioxotetrahydropyrimidin-1(2H)-yl)pyrazin-2-yl)methyl)piperazin-1-yl)benzyl)-1H-pyrazol-4-yl)-9-methyl-6-oxo-6,7,8,9-tetrahydropyrido[3',2':4,5]py rrolo[1,2-a]pyrazine-2-carboxamide] | A (A is defined as 0% ≤ substrate protein remaining % ≤ 80%) | B (B is defined as substrate protein remaining % > 80%)
4 | C[C@@H]1CNC(=O)c2cc3ccc(C(=O)Nc4cnn(Cc5ccc(N6CCC(N(C)Cc7ccc(C8CCC(=O)NC8=O)cc7)CC6)cc5)c4)nc3n21 (stereo partly drawn) [GT-07937, (9R)-N-(1-(4-(4-((4-(2,6-dioxopiperidin-3-yl)benzyl)(methyl)amino)piperidin-1-yl)benzyl)-1H-pyrazol-4-yl)-9-methyl-6-oxo-6,7,8,9-tetrahydropyrido[3',2':4,5]py rrolo[1,2-a]pyrazine-2-carboxamide] | A (A is defined as 0% ≤ substrate protein remaining % ≤ 80%) | B (B is defined as substrate protein remaining % > 80%)
5 | C[C@@H]1CNC(=O)c2cc3ccc(C(=O)Nc4cnn(Cc5ccc(N6CCC(N(C)Cc7ccc(N8CCC(=O)NC8=O)cc7)CC6)cc5)c4)nc3n21 [GT-07938, (R)-N-(1-(4-(4-((4-(2,4-dioxotetrahydropyrimidin-1(2H)-yl)benzyl)(methyl)amino)piperidin-1-yl)benzyl)-1H-pyrazol-4-yl)-9-methyl-6-oxo-6,7,8,9-tetrahydropyrido[3',2':4,5]py rrolo[1,2-a]pyrazine-2-carboxamide] | A (A is defined as 0% ≤ substrate protein remaining % ≤ 80%) | B (B is defined as substrate protein remaining % > 80%)
6 | C[C@@H]1CNC(=O)c2cc3ccc(C(=O)Nc4cnn(Cc5ccc(N6CCC(N(C)Cc7cccc(N8CCC(=O)NC8=O)c7)CC6)cc5)c4)nc3n21 [GT-07939, (R)-N-(1-(4-(4-((3-(2,4-dioxotetrahydropyrimidin-1(2H)-yl)benzyl)(methyl)amino)piperidin-1-yl)benzyl)-1H-pyrazol-4-yl)-9-methyl-6-oxo-6,7,8,9-tetrahydropyrido[3',2':4,5]py rrolo[1,2-a]pyrazine-2-carboxamide] | A (A is defined as 0% ≤ substrate protein remaining % ≤ 80%) | B (B is defined as substrate protein remaining % > 80%)
